# Reference: patent publication US5661001A, “High molecular weight desulphatohirudin” (Ciba-Geigy Corporation, priority 1993, dated 1997)
# Tests used:
# α-thrombin = α-thrombin (Homo sapiens, UniProt P00734); assay: antithrombin activity: inhibition of α-thrombin digesting Chromozym TH; format: biochemical
# Method: The amino acid composition is determined by the dimethylaminoazobenzene sulfonyl (dabsyl) chloride method (Chang et al. Anal. Biochem. (1991), 197, 52-58.), which allows direct quantization of the disulfide content. The amino acid sequence was analyzed by an Applied Biosystem Inc. 470A protein sequencer. The antithrombin activity of desulphatohirudin derivatives was assessed by their ability to inhibit α-thrombin from digesting Chromozym TH (Boehringer Mannheim), using the described protocol (Stone et al. Biochemistry (1986), 25, 4622-4628; Chatrenet et al. J. Biol. Chem. (1992), 267, 3038-3043). The molecular weight of desulphatohirudin is […], determined by the laser desorption ionization mass spectrometry using a home-built instrument (Boernsen et al. Chimia (1990), 44, 412-416).
# human thrombin = human thrombin (Homo sapiens, UniProt P00734); assay: kinetic parameters for inhibition of human thrombin (progress-curve experiments, D-Phe-pipecolyl-Arg-p-nitroanilide); format: biochemical; conditions: substrate 100 μM, enzyme 20 pM; weighted means of two determinations
# Method: The kinetic parameters of the [Cys^33 ]HV1--[Cys^33 ]HV1 dimer are determined from progress-curve experiments as described by Stone et al. Biochemistry (1986), 25, 4622-4628 and Braun et al. Biochemistry, (1988), 27, 6517-6522. For each determination, the formation of p-nitroaniline from D-Phe-pipecolyl-Arg-p-nitroanilide is monitored in six assays, one in absence of inhibitor and the others with different concentrations of inhibitor ranging from 10 to 60 pM for the [Cys^33 ]HV1--[Cys^33 ]HV1 dimer. The substrat concentration is 100 μM and the enzyme concentration is 20 pM.
# The kinetic parameters are determined twice and values given in table 2 represent the weightened means of the estimates.
# plasma APTT = assay: ex vivo plasma APTT after subcutaneous administration in the rat; conditions: s.c. 1 ml/kg, dimer 4.5 mg/ml, HV1 3.0 mg/ml, mean±SEM, n=5
# Method: (APTT=activated partial thrombin time)
# [Cys^33 ]HV1--[Cys^33 ]HV1 dimer is dissolved in saline to a concentration of 4.5 mg/ml and unmodified hirudin-monomer is dissolved in saline to a concentration of 3.0 mg/ml (these doses are chosen based on the in vitro results in order to achieve a similar effect on APTT at 1 h). Solutions are administered subcutaneously to rats (1 ml/kg). At various times after administration, blood (2 ml) is collected by cardiac puncture directly into one tenth volume trisodium titrate solution (3.8% w/v) and immediately mixed. The anticoagulated blood is centrifuged at 2500 g for 20 min to obtain platelet free plasma.
# Plasma samples are assayed for APTT using standard methods on the Instrumentation Laboratory ACL 300R coagulometer. The method for APTT determination utilizes the Instrumentation Laboratory ellagic acid test kit--plasma (50 μl) is incubated with ellagic acid activating reagent (50 μl) at 37° C. for 5 min prior to the addition of calcium chloride solution (50 μl of 25 mM solution) and the time taken for the plasma clot is recorded automatically, the end point being determined optically by the light scattered when the fibrin network formed (see table 1).
# The results are expressed as a multiple of the means control APTT value and presented as mean±standard error of the mean (n=5).
"potency of thrombin inhibition, monomer versus dimer (α-thrombin; comparison of Cys33 monomer and dimer)",Substance,10^8 k1 (human thrombin),"thrombin inhibition (inhibitory activity, equal weight basis) (α-thrombin; 1 nM desulphatohirudin, 1.5 nM α-thrombin)",APTT as multiple of the mean control APTT value (plasma APTT; 0 hours),APTT as multiple of the mean control APTT value (plasma APTT; 1 hour),APTT as multiple of the mean control APTT value (plasma APTT; 4 hours),APTT as multiple of the mean control APTT value (plasma APTT; 6 hours)
nearly indistinguishable (±3%),Cys^33 monomer: mutant of recombinant desulphatohirudin HV1 with cysteine replacing aspartic acid at position 33 (SEQ ID NO: 8),–,–,–,–,–,–
–,"HV1: unmodified desulphatohirudin variant 1 monomer, used as comparator",1.37 ± 0.03 M^-1 s^-1,82±5%,1.00 ± 0.02 multiple of control APTT,2.44 ± 0.07 multiple of control APTT,1.43 ± 0.05 multiple of control APTT,0.95 ± 0.02 multiple of control APTT
